Laboratory results taken from ChEMBL document CHEMBL1201862, “PubChem BioAssay data set” (2004).
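A five-concentration, 48-hour dose response in 96-well plates underlies each endpoint, interpolated linearly between surrounding concentrations. GI50 marks 50% less growth.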 Activity calls are given as the source filed them. Rule as the data show it: active = GI50 up to about 1.1 µM and inactive = higher.

What was measured:
Experiment in all cases: NCI anticancer screen, dose series, 48 h
A549 = tested on: A549
MDA-N = tested on: MDA-N
K562 = tested on: K562
UACC-257 = tested on: UACC-257
SR = tested on: SR
OVCAR-3 = tested on: OVCAR-3
HT-29 = tested on: HT-29
PC-3 = tested on: PC-3
HCC 2998 = tested on: HCC 2998
Hs-578T = tested on: Hs-578T
OVCAR-4 = tested on: OVCAR-4
NCI-H460 = tested on: NCI-H460
UACC-62 = tested on: UACC-62
OVCAR-5 = tested on: OVCAR-5
CAKI-1 = tested on: CAKI-1
SNB-75 = tested on: SNB-75
Malme-3M = tested on: Malme-3M
T47D = tested on: T47D
SF-539 = tested on: SF-539
NCI/ADR-RES = tested on: NCI/ADR-RES
MDA-MB-231 = tested on: MDA-MB-231
IGROV-1 = tested on: IGROV-1
MOLT-4 = tested on: MOLT-4
A498 = tested on: A498
ACHN = tested on: ACHN
SNB-19 = tested on: SNB-19
KM12 = tested on: KM12
SK-MEL-5 = tested on: SK-MEL-5
786-0 = tested on: 786-0
SW-620 = tested on: SW-620
DU-145 = tested on: DU-145
HCT-15 = tested on: HCT-15
SK-MEL-28 = tested on: SK-MEL-28
SF-295 = tested on: SF-295
SN12C = tested on: SN12C
LOX IMVI = tested on: LOX IMVI
NCI-H23 = tested on: NCI-H23
SF-268 = tested on: SF-268
EKVX = tested on: EKVX
SK-OV-3 = tested on: SK-OV-3
NCI-H226 = tested on: NCI-H226
UO-31 = tested on: UO-31
MCF7 = tested on: MCF7
U-251 = tested on: U-251
TK-10 = tested on: TK-10
RPMI-8226 = tested on: RPMI-8226
HOP-62 = tested on: HOP-62
M14 = tested on: M14
MDA-MB-435 = tested on: MDA-MB-435
HCT-116 = tested on: HCT-116
SK-MEL-2 = tested on: SK-MEL-2
OVCAR-8 = tested on: OVCAR-8
HOP-92 = tested on: HOP-92
CCRF-CEM = tested on: CCRF-CEM
NCI-H522 = tested on: NCI-H522
RXF 393 = tested on: RXF 393
COLO 205 = tested on: COLO 205
BT-549 = tested on: BT-549

SMILES: CCCCCCCCCCCCOCC1(COCCCCCCCCCCCC)COC(c2ccc(N)cc2)OC1
- GI50 (A549): > 100 µM (inactive)
- GI50 (MDA-N): > 100 µM (inactive)
- GI50 (K562): > 100 µM (inactive)
- GI50 (UACC-257): > 100 µM (inactive)
- GI50 (SR): > 100 µM (inactive)
- GI50 (OVCAR-3): > 100 µM (inactive)
- GI50 (HT-29): > 100 µM (inactive)
- GI50 (PC-3): > 100 µM (inactive)
- GI50 (HCC 2998): > 100 µM (inactive)
- GI50 (Hs-578T): > 100 µM (inactive)
- GI50 (OVCAR-4): > 100 µM (inactive)
- GI50 (NCI-H460): > 10 µM (inactive)
- GI50 (UACC-62): > 100 µM (inactive)
- GI50 (OVCAR-5): > 100 µM (inactive)
- GI50 (CAKI-1): > 100 µM (inactive)
- GI50 (SNB-75): > 100 µM (inactive)
- GI50 (Malme-3M): > 100 µM (inactive)
- GI50 (T47D): > 100 µM (inactive)
- GI50 (SF-539): > 100 µM (inactive)
- GI50 (NCI/ADR-RES): > 100 µM (inactive)
- GI50 (MDA-MB-231): > 100 µM (inactive)
- GI50 (IGROV-1): > 100 µM (inactive)
- GI50 (MOLT-4): > 100 µM (inactive)
- GI50 (A498): > 100 µM (inactive)
- GI50 (ACHN): > 100 µM (inactive)
- GI50 (SNB-19): > 100 µM (inactive)
- GI50 (KM12): > 100 µM (inactive)
- GI50 (SK-MEL-5): > 100 µM (inactive)
- GI50 (786-0): > 100 µM (inactive)
- GI50 (SW-620): > 100 µM (inactive)
- GI50 (DU-145): > 100 µM (inactive)
- GI50 (HCT-15): > 100 µM
- GI50 (SK-MEL-28): > 100 µM (inactive)
- GI50 (SF-295): > 100 µM (inactive)
- GI50 (SN12C): > 100 µM (inactive)
- GI50 (LOX IMVI): > 100 µM (inactive)
- GI50 (NCI-H23): > 100 µM (inactive)
- GI50 (SF-268): > 100 µM (inactive)
- GI50 (EKVX): > 100 µM (inactive)
- GI50 (SK-OV-3): > 100 µM (inactive)
- GI50 (NCI-H226): > 100 µM (inactive)
- GI50 (UO-31): > 100 µM (inactive)
- GI50 (MCF7): > 100 µM (inactive)
- GI50 (U-251): > 100 µM (inactive)
- GI50 (TK-10): > 100 µM (inactive)
- GI50 (RPMI-8226): > 100 µM (inactive)
- GI50 (HOP-62): > 100 µM (inactive)
- GI50 (M14): > 100 µM (inactive)
- GI50 (MDA-MB-435): > 100 µM (inactive)
- GI50 (HCT-116): > 100 µM (inactive)
- GI50 (SK-MEL-2): > 100 µM (inactive)
- GI50 (OVCAR-8): > 100 µM (inactive)

SMILES: CC(C)=CCC(O)[C@](C)(O)[C@H]1[C@H](O)C[C@@]2(C)[C@@H]3CCc4cc(O)c(OC5OC(CO)C(O)C(O)C5O)cc4C3(C)C(=O)C[C@]12C (some centres not stated)
- GI50 (A549): > 100 µM (inactive)
- GI50 (MDA-N): > 100 µM (inactive)
- GI50 (K562): > 100 µM (inactive)
- GI50 (UACC-257): > 100 µM (inactive)
- GI50 (HOP-92): > 100 µM (inactive)
- GI50 (SR): > 100 µM (inactive)
- GI50 (OVCAR-3): > 100 µM (inactive)
- GI50 (HT-29): > 100 µM (inactive)
- GI50 (PC-3): > 100 µM (inactive)
- GI50 (HCC 2998): > 100 µM (inactive)
- GI50 (OVCAR-4): > 100 µM (inactive)
- GI50 (NCI-H460): > 100 µM (inactive)
- GI50 (UACC-62): > 100 µM (inactive)
- GI50 (OVCAR-5): > 100 µM (inactive)
- GI50 (CAKI-1): > 100 µM (inactive)
- GI50 (SNB-75): > 100 µM (inactive)
- GI50 (Malme-3M): > 100 µM (inactive)
- GI50 (CCRF-CEM): > 100 µM (inactive)
- GI50 (T47D): > 100 µM (inactive)
- GI50 (SF-539): > 100 µM (inactive)
- GI50 (NCI/ADR-RES): > 100 µM (inactive)
- GI50 (MDA-MB-231): > 100 µM (inactive)
- GI50 (IGROV-1): 89.3 µM (inactive)
- GI50 (MOLT-4): > 100 µM (inactive)
- GI50 (A498): > 100 µM (inactive)
- GI50 (NCI-H522): > 100 µM (inactive)
- GI50 (ACHN): > 100 µM (inactive)
- GI50 (SNB-19): > 100 µM (inactive)
- GI50 (RXF 393): > 100 µM (inactive)
- GI50 (KM12): > 100 µM (inactive)
- GI50 (SK-MEL-5): > 100 µM (inactive)
- GI50 (786-0): > 100 µM (inactive)
- GI50 (SW-620): > 100 µM (inactive)
- GI50 (COLO 205): > 100 µM (inactive)
- GI50 (DU-145): > 100 µM (inactive)
- GI50 (HCT-15): > 100 µM
- GI50 (SK-MEL-28): > 100 µM (inactive)
- GI50 (SF-295): > 100 µM (inactive)
- GI50 (SN12C): > 100 µM (inactive)
- GI50 (NCI-H23): > 100 µM (inactive)
- GI50 (SF-268): > 100 µM (inactive)
- GI50 (EKVX): > 100 µM (inactive)
- GI50 (SK-OV-3): > 100 µM (inactive)
- GI50 (NCI-H226): > 100 µM (inactive)
- GI50 (UO-31): > 100 µM (inactive)
- GI50 (BT-549): > 100 µM (inactive)
- GI50 (MCF7): > 100 µM (inactive)
- GI50 (U-251): > 100 µM (inactive)
- GI50 (TK-10): > 100 µM (inactive)
- GI50 (HOP-62): > 100 µM (inactive)
- GI50 (M14): > 100 µM (inactive)
- GI50 (MDA-MB-435): > 100 µM (inactive)
- GI50 (HCT-116): > 100 µM (inactive)
- GI50 (SK-MEL-2): > 100 µM (inactive)
- GI50 (OVCAR-8): > 100 µM (inactive)
